Test results as given in patent publication US10532987B2, “Compounds and methods for inducing browning of white adipose tissue” (GUANGZHOU INSTITUTES OF BIOMEDICINE AND HEALTH, CHINESE …, priority 2015, dated 2020).

Tested on: Ucp1
Test: UCP1 luciferase assay (Ucp1 up-regulation in differentiated inguinal adipocytes of Ucp1-luciferase knock-in mice)
Assay type: cell-based
Conditions: Mus musculus, Adipocyte, 48 h, 2 days treatment, luciferase activity, read-out: Ucp1 activation fold/corresponding concentration
Protocol: TEST EXAMPLE 1 UCP1 Luciferase Assay
Evaluating Compounds that Induce Ucp1 Up-Regulation
Ucp1-luciferase knock-in mice will be housed in cages and fed on standard chow diets (the detailed procedures please see reference 14). The 8-week-old mice will be killed by the cervical dislocation and put into 75% alcohol for 5 minutes. The inguinal adipose tissue will be dissected out and transferred to the three 10-cm petri dishes and washed with PBS for three times. The adipose tissue will be dissected and minced on a 10-cm petri dish for several minutes and then pipetted into 20 ml 0.1% collagenase solution in 50 ml conical tubes and digested at 37° C. for 1 hour. Next, 20 ml culture medium will be added to terminate the digestion and centrifuged for 10 minutes at 1000 rpm respectively. The supernatants will be removed and the pellets re-suspended in 10 mL culture medium and plated into 10-cm plates. The cells will be left to adhere to the plates overnight and the culture medium will be changed every other day. The confluent cells will be trypsinized, counted and plated to 24-well plate (5×10^4 cells/well). The cells will be washed and re-fed the next day (as day −2). Two days later (day 0), the cells will usually become confluent and be induced to differentiate with MDIR medium. On day 2, the medium will be changed to IR medium and re-fed every 2 days. Complete differentiation is usually achieved by day 10. On day 10, the medium will be changed to the culture medium of 10% FBS/DMEM with indicated drugs along with the positive and negative controls for 2 days. The media will be removed and the cells washed with 1 ml PBS per well three times. Then 100 μl lysis buffer will be used to lyse the cells at 4° C. for 1 hour. 30 μl culture medium, 30 μl cell lysates and 60 μl Steady-Glo® Reagent were added to a well of 96-well-plate and the luminescence will be measured using a luminometer. The protein concentration will be determined using 20 μl cell lysates and specific activity of luciferase will be tabulated and data analyzed.

Structure (SMILES) | fold induction at 3 µM | further results
CC(C)Oc1ccc(-c2csc(Nc3ccccn3)n2)cc1 [Compound 42, 4-(4-isopropoxyphenyl)-N-(pyridin-2-yl)thiazol-2-amine] | – | fold induction at 1 µM: 2
CCCCOc1ccc(-c2csc(Nc3ccccn3)n2)cc1 [Compound 43, 4-(4-butoxyphenyl)-N-(pyridin-2-yl)thiazol-2-amine] | – | fold induction at 1 µM: 2.8
CCOC(=O)COc1ccc(-c2csc(Nc3ccccn3)n2)cc1 [Compound 44, ethyl 2-(4-(2-(pyridin-2-ylamino)thiazol-4-yl)phenoxy)acetate] | 1.9 | –
O=C(O)COc1ccc(-c2csc(Nc3ccccn3)n2)cc1 [Compound 45, 2-(4-(2-(pyridin-2-ylamino)thiazol-4-yl)phenoxy)acetic acid] | – | fold induction at 0.3 µM: 1.3
O=C(COc1ccc(-c2csc(Nc3ccccn3)n2)cc1)N1CCOCC1 [Compound 46, 1-morpholino-2-(4-(2-(pyridin-2-ylamino)thiazol-4-yl)phenoxy)ethanone] | 1.7 | –
CCNC(=O)COc1ccc(-c2csc(Nc3ccccn3)n2)cc1 [Compound 47, N-ethyl-2-(4-(2-(pyridin-2-ylamino)thiazol-4-yl)phenoxy)acetamide] | 2.4 | –
COC(=O)c1ccc(-c2csc(Nc3ccccn3)n2)cc1 [Compound 48, methyl 4-(2-(pyridin-2-ylamino)thiazol-4-yl)benzoate] | 6 | –
N#Cc1ccc(-c2csc(Nc3ccccn3)n2)cc1 [Compound 49, 4-(2-(pyridin-2-ylamino)thiazol-4-yl)benzonitrile] | – | fold induction at 1 µM: 3.9
c1ccc(-c2ccc(-c3csc(Nc4ccccn4)n3)cc2)cc1 [Compound 50, 4-(biphenyl-4-yl)-N-(pyridin-2-yl)thiazol-2-amine] | 2.4 | –
CS(=O)(=O)c1ccc(-c2csc(Nc3ccccn3)n2)cc1 [Compound 51, 4-(4-(methylsulfonyl)phenyl)-N-(pyridin-2-yl)thiazol-2-amine] | – | fold induction at 1 µM: 3.9
O=C(c1ccc(-c2csc(Nc3ccccn3)n2)cc1)N1CCOCC1 [Compound 52, morpholino(4-(2-(pyridin-2-ylamino)thiazol-4-yl)phenyl)methanone] | – | fold induction at 1 µM: 5.1
CCNC(=O)c1ccc(-c2csc(Nc3ccccn3)n2)cc1 [Compound 53, N-ethyl-4-(2-(pyridin-2-ylamino)thiazol-4-yl)benzamide] | – | fold induction at 1 µM: 3
c1ccc(Nc2nc(-c3ccc(CN4CCOCC4)cc3)cs2)nc1 [Compound 54, 4-(4-(morpholinomethyl)phenyl)-N-(pyridin-2-yl)thiazol-2-amine] | – | fold induction at 1 µM: 3.9
c1ccc(CNc2ccc(-c3csc(Nc4ccccn4)n3)cc2)cc1 [Compound 55, 4-(4-(benzylamino)phenyl)-N-(pyridin-2-yl)thiazol-2-amine] | 2 | –
CC(C)(C)CNc1ccc(-c2csc(Nc3ccccn3)n2)cc1 [Compound 56, 4-(4-(neopentylamino)phenyl)-N-(pyridin-2-yl)thiazol-2-amine] | 2.3 | –
CC(C)NC(=O)c1ccc(-c2csc(Nc3ccccn3)n2)cc1 [Compound 57, N-isopropyl-4-(2-(pyridin-2-ylamino)thiazol-4-yl)benzamide] | 3.5 | –
O=C(Nc1ccccc1)c1ccc(-c2csc(Nc3ccccn3)n2)cc1 [Compound 58, N-phenyl-4-(2-(pyridin-2-ylamino)thiazol-4-yl)benzamide] | 1.4 | –
CN1CCN(C(=O)c2ccc(-c3csc(Nc4ccccn4)n3)cc2)CC1 [Compound 59, (4-methylpiperazin-1-yl)(4-(2-(pyridin-2-ylamino)thiazol-4-yl)phenyl)methanone] | – | fold induction at 1 µM: 4
CC(=O)OCc1ccc(-c2csc(Nc3ccccn3)n2)cc1 [Compound 60, 4-(2-(pyridin-2-ylamino)thiazol-4-yl)benzyl acetate] | 2.6 | –
CC(=O)N1CCC(c2ccc(-c3csc(Nc4ccccn4)n3)cc2)CC1 [Compound 61, 1-(4-(4-(2-(pyridin-2-ylamino)thiazol-4-yl)phenyl)piperidin-1-yl)ethanone] | 3.2 | –
COCCOCCNC(=O)c1ccc(-c2csc(Nc3ccccn3)n2)cc1 [Compound 62, N-(2-(2-methoxyethoxy)ethyl)-4-(2-(pyridin-2-ylamino)thiazol-4-yl)benzamide] | 2.2 | –

Structure (SMILES) | fold induction at 3 µM | further results
Clc1ccc(-c2csc(Nc3ccccn3)n2)cc1 [Compound 63, 4-(4-chlorophenyl)-N-(pyridin-2-yl)thiazol-2-amine] | 5.9 | –
O=C(Nc1cccnc1)c1ccc(-c2csc(Nc3ccccn3)n2)cc1 [Compound 64, 4-(2-(pyridin-2-ylamino)thiazol-4-yl)-N-(pyridin-3-yl)benzamide] | – | fold induction at 1 µM: 1.1
O=C(Nc1ccncc1)c1ccc(-c2csc(Nc3ccccn3)n2)cc1 [Compound 65, 4-(2-(pyridin-2-ylamino)thiazol-4-yl)-N-(pyridin-4-yl)benzamide] | 1.1 | –
CCN(CC)C(=O)c1ccc(-c2csc(Nc3ccccn3)n2)cc1 [Compound 66, N,N-diethyl-4-(2-(pyridin-2-ylamino)thiazol-4-yl)benzamide] | 1 | –
CCOC(=O)[C@@H]1CCCN1C(=O)c1ccc(-c2csc(Nc3ccccn3)n2)cc1 [Compound 67, (S)-ethyl 1-(4-(2-(pyridin-2-ylamino)thiazol-4-yl)benzoyl)pyrrolidine-2-carboxylate] | 3.1 | –
O=C(Nc1ccc(Cl)cc1)c1csc(Nc2ccccn2)n1 [Compound 68, N-(4-chlorophenyl)-2-(pyridin-2-ylamino)thiazole-4-carboxamide] | 1.3 | –
O=C(Nc1ccccn1)c1ccc(-c2csc(Nc3ccccn3)n2)cc1 [Compound 69, N-(pyridin-2-yl)-4-(2-(pyridin-2-ylamino)thiazol-4-yl)benzamide] | 4.6 | –
COc1ccc(-c2csc(NC(=O)[C@@H]3CCCN3)n2)cc1OC [Compound 70, (S)—N-(4-(3,4-dimethoxyphenyl)thiazol-2-yl)pyrrolidine-2-carboxamide] | – | fold induction at 0.3 µM: 1.7
CCOC(=O)N1CCC[C@H]1C(=O)Nc1nc(-c2ccc(OC)c(OC)c2)cs1 [Compound 71, (S)-ethyl 2-(4-(3,4-dimethoxyphenyl)thiazol-2-ylcarbamoyl)pyrrolidine-1-carboxylate] | – | fold induction at 0.3 µM: 1.7
c1ccc(Nc2nc(-c3ccc(CN4CCCCC4)cc3)cs2)nc1 [Compound 72, 4-(4-(piperidin-1-ylmethyl)phenyl)-N-(pyridin-2-yl)thiazol-2-amine] | 1.8 | –
CC(=O)c1ccc(-c2csc(Nc3ccccn3)n2)cc1 [Compound 73, 1-(4-(2-(pyridin-2-ylamino)thiazol-4-yl)phenyl)ethanone] | 1.2 | –
O=C(NO)c1ccc(-c2csc(Nc3ccccn3)n2)cc1 [Compound 74, N-hydroxy-4-(2-(pyridin-2-ylamino)thiazol-4-yl)benzamide] | 3 | –
Clc1cccc(-c2csc(Nc3ccccn3)n2)c1Cl [Compound 75, 4-(2,3-dichlorophenyl)-N-(pyridin-2-yl)thiazol-2-amine] | 1.1 | –
c1ccc(Nc2nc(-c3ccc(-c4ccsc4)cc3)cs2)nc1 [Compound 76, N-(pyridin-2-yl)-4-(4-(thiophen-3-yl)phenyl)thiazol-2-amine] | 1.8 | –
c1ccc(Nc2nc(-c3ccc(-c4nn[nH]n4)cc3)cs2)nc1 [Compound 77, 4-(4-(2H-tetrazol-5-yl)phenyl)-N-(pyridin-2-yl)thiazol-2-amine] | 1.1 | –
C#Cc1ccc(-c2csc(Nc3ccccn3)n2)cc1 [Compound 78, 4-(4-ethynylphenyl)-N-(pyridin-2-yl)thiazol-2-amine] | – | fold induction at 1 µM: 2.3
c1ccc(Nc2nc(-c3ccc(-c4ccncc4)cc3)cs2)nc1 [Compound 79, N-(pyridin-2-yl)-4-(4-(pyridin-4-yl)phenyl)thiazol-2-amine] | 1.8 | –
Cc1ccc(-c2csc(Nc3ccccn3)n2)cc1C [Compound 80, 4-(3,4-dimethylphenyl)-N-(pyridin-2-yl)thiazol-2-amine] | 1.5 | –
c1ccc(Nc2nc(-c3ccc4c(c3)CCC4)cs2)nc1 [Compound 81, 4-(2,3-dihydro-1H-inden-5-yl)-N-(pyridin-2-yl)thiazol-2-amine] | – | fold induction at 1 µM: 2
c1ccc(Nc2nc(-c3ccc4c(c3)OCO4)cs2)nc1 [Compound 82, 4-(benzo[d][1,3]dioxol-5-yl)-N-(pyridin-2-yl)thiazol-2-amine] | – | fold induction at 1 µM: 2.4
Cc1cc(-c2csc(Nc3ccccn3)n2)ccc1N [Compound 83, 4-(4-amino-3-methylphenyl)-N-(pyridin-2-yl)thiazol-2-amine] | 6 | –
